Assay results from patent EP0319316A2, “Griseolic acid monoesters, their preparation and use” (SANKYO COMPANY LIMITED, priority 1987, dated 1989).
Structures can show the parent of a compound that is named as a salt. Where two headings read alike, the source gives them in different places. One block for each compound: values may come before it.

How the values were obtained:
[1] = tested on: normal rabbits; assay: Intraocular pressure reduction in normal rabbits (Experiment 1); type: in vivo, male New Zealand white rabbits
Protocol: In the following Experiments 1 to 6, the test animals used were male New Zealand white rabbits, each weighing about 2.5 kg, raised in a room where the room temperature, relative humidity and lighting time were controlled to be 23° C, 60% and from 07:00 to 19:00, respectively. The animals were chosen from those where no abnormalities could be detected in their eyes by observation with the naked eye. They were given water freely but feed was restricted. The reduction in intraocular pressure (IOP) caused by the compounds of the present invention was investigated using groups of three male New Zealand white rabbits for each test. The compounds of the present invention were employed as solutions dissolved in a 50 mM phosphate buffer (pH 7.0) containing 0.4% w/v of sodium chloride which were adjusted to concentrations of about 1% w/v of the compound under test. Both eyes of each rabbit were anesthetized with eye drops containing an ophthalmic anesthetic (0.4% Benoxil, available from Santen Pharmaceutical Co., Ltd.), and then the IOP in each eye was measured by means of a PTG (Pneumatonograph: Alcon). The test substance was then instilled into either the left eye or the right eye (the eye to be tested) in an amount of 50 µℓ (in the case of 0.5% timolol, a known compound used for comparison, the amount was 30 µℓ). Sixty minutes after this instillation, the same amount of the same test compound was instilled into the same eye of each test animal. On the other hand, no instillation was effected into the other eye of each animal, which was used as a control eye. The IOP values of both eyes were measured 30,60,90,120,150 and 180 minutes, after the initial instillation of the test substance. The IOP reduction at each time of measurement caused by each test substance was calculated from the following equation: Intraocular pressure reduction (Ap, mmHg) = (Ic - It) - (Ic° - It°), • in which: • Ic the IOP of the control eye; • It is the IOP of the test eye; • Ic° the IOP of the control eye immediately before the initial instillation; and • It° is the IOP of the test eye immediately before the initial instillation. The average value of the IOP reduction at each time of measurement was calculated to obtain the intraocular reduction (Ap, mmHg) of the test substance. The results are reported as a ratio of the Δp of the test substance to that of the known substance, 0.5% timolol, which is, therefore, taken as 1.

[2] = tested on: Balb/3T3 cells; settings: 10 min, 500 µM
Protocol: (§1) Balb/3T3 cells were incubated in Dulbecco's modified Eagle medium (glucose-rich) containing 100/o v/v bovine fetal serum. […] The sample was then dissolved in a buffer solution prepared by the further addition of 4 mM of calcium chloride to the buffer solution mentioned above. If the sample was difficult to dissolve in water, it was dissolved first in dimethyl sulphoxide (DMSO) and then the resulting solution was diluted with the buffer (the final concentration of DMSO was determined to be 0.1%). The cell suspension was preincubated at 30° C for 5 minutes, and 100 µℓ of this suspension were added to 100 µℓ of the sample solution to initiate enzymatic reaction. After incubation at 30° C for 10 minutes, 20 µℓ of 1 N aqueous hydrochloric acid was added to stop the reaction. The reaction mixture was then centrifuged at 3000 rpm for 3 minutes to obtain 100 µℓ of the supernatant. Cyclic 3',5'-adenosine monophosphate (cAMP) contained in the supernatant was quantitatively analyzed by radioimmunoassay using a Yamasa cAMP radioimmunoassay kit YSI-7701. The CAMP accumulating effect is reported as the ratio between the value measured using a test compound and that measured in the control.

[3] = tested on: Balb/3T3 cells; assay: cAMP accumulation in Balb/3T3 cells, radioimmunoassay (Experiment 5)
Protocol: as §1

[4] = tested on: IOP; assay: IOP lowering effect, area between IOP-time curves (Experiment 6); type: in vivo, male New Zealand white rabbits; settings: 25 µℓ three times every 2 minutes, ratio of areas between IOP lines
Protocol: In the following Experiments 1 to 6, the test animals used were male New Zealand white rabbits, each weighing about 2.5 kg, raised in a room where the room temperature, relative humidity and lighting time were controlled to be 23° C, 60% and from 07:00 to 19:00, respectively. The animals were chosen from those where no abnormalities could be detected in their eyes by observation with the naked eye. They were given water freely but feed was restricted.
The compound under test was dissolved in 100 mM of a sodium phosphate buffer solution (pH 7.2) containing a small amount of a 0.1 N aqueous solution of sodium hydroxide. In the case of timolol maleate, a 0.5% w/v eye lotion (Timoptol 0.5%, Santen Pharm. Co.) was used as such.
The cornea of the rabbit was anesthetized by the topical application of one or two drops of 0.4% oxybuprocaine hydrochloride. The IOP was measured two or three times for each eye and the mean value was calculated and is reported as the IOP value. After the IOP of the rabbit eye had been measured, 25 µℓ of the sample solution was applied to center of the cornea of one eye three times every 2 minutes. The other eye was treated with the vehicle alone in a similar way. The IOP of both eyes was then measured.
IOP values obtained from both eyes were plotted against times after application and the area enclosed by the two IOP lines (with and without the active compound) was calculated. The IOP lowering effect of each sample was expressed as a ratio of the area described above to that of 0.5^0/o timolol.

[5] = tested on: water load-induced elevation of intraocular pressure; assay: Effect on water load-induced elevation of intraocular pressure, water load test (Experiment 2); type: in vivo, male New Zealand white rabbits; settings: 0.5% timolol maleate; water load test
Protocol: In the following Experiments 1 to 6, the test animals used were male New Zealand white rabbits, each weighing about 2.5 kg, raised in a room where the room temperature, relative humidity and lighting time were controlled to be 23° C, 60% and from 07:00 to 19:00, respectively. The animals were chosen from those where no abnormalities could be detected in their eyes by observation with the naked eye. They were given water freely but feed was restricted. The compound under test was dissolved in 100 mM of a sodium phosphate buffer solution (pH 7.2) containing a small amount of a 0.1 N aqueous solution of sodium hydroxide. In the case of timolol maleate, a 0.5% w/v eye lotion (Timoptol 0.5%, Santen Pharm. Co.) was used as such. Each rabbit was anesthetized with urethane (1.0 g/kg, i.v.), and the IOP values of both eyes were measured. Immediately thereafter, 50 µℓ of the sample solution was applied to one eye (test eye). To the other eye (control eye), 50 µℓ of the vehicle alone was applied. Ninety minutes after this application, the values of IOP were measured and then the water load test was performed as follows. Sixty ml/kg of tap water was given compulsorily per os to the anesthetized rabbit, and then the values of IOP for both eyes were measured with the passage of time. In this Experiment, the test compound was the compound of Example 19(b), i.e. 9'-(4-acetoxybenzyl) griseolate.

[6] = tested on: Normal intraocular pressure; assay: Normal intraocular pressure lowering effect (Experiment 3); type: in vivo, male New Zealand white rabbits; settings: 0.5% timolol maleate applied to the eye
Protocol: In the following Experiments 1 to 6, the test animals used were male New Zealand white rabbits, each weighing about 2.5 kg, raised in a room where the room temperature, relative humidity and lighting time were controlled to be 23° C, 60% and from 07:00 to 19:00, respectively. The animals were chosen from those where no abnormalities could be detected in their eyes by observation with the naked eye. They were given water freely but feed was restricted. The compound under test was dissolved in 100 mM of a sodium phosphate buffer solution (pH 7.2) containing a small amount of a 0.1 N aqueous solution of sodium hydroxide. In the case of timolol maleate, a 0.5% w/v eye lotion (Timoptol 0.5%, Santen Pharm. Co.) was used as such. The corneal surface was anesthetized by the application of oxybuprocain hydrochloride (Benoxil 0.4% solution, Santen Pharm. Co.), and the IOP was measured by means of an Alcon Applanation Pneumatograph (Japan Alcon) in rabbits. The measurements were carried out 2 or 3 times for each eye, and the mean value was calculated and is regarded as the value of IOP. After determination of the IOP, 25 µℓ of a sample solution was applied to one eye (test eye) three times every two minutes, and the same volume of the vehicle alone was applied to the other eye (control eye). The values of IOP of both eyes were measured with the passage of time. In this Experiment, the test compound was the compound of Example 19(b).

[7] = drug concentration 1.0 %, 50 µℓ instilled at 0 and 60 min, average over 30-180 min, ratio to 0.5% timolol taken as 1

Compound: 8'-Pivaloyloxyrnethyl griseolate [Example 10]
- Intraocular pressure reduction relative to 0.5% timolol [1, 7]: 1.08

Compound: 9'-(1-Pivaloyloxyethyl) griseolate [Example 5]
- Intraocular pressure reduction relative to 0.5% timolol [1, 7]: 0.92

Compound: 9'-(3,4-Diacetoxybenzyl) griseolate [Example 22(b)]
- cAMP accumulating effect [2]: 8.3

Compound: 9'-(4-Acetoxy-3-methoxybenzyl) 7'-deoxygriseolate [Example 37]
- cAMP accumulating effect ([3]; Concentration 500 µM, ratio of value with test compound to control, 30° C, 10 minutes): 16

Compound: 9'-(4-Acetoxy-3-methoxybenzyl) griseolate [Example 26(b)]
- IOP Lowering Effect (Ratio to 0.5% timolol) ([4]; Concentration 0.5 %): 3.29

Compound: 9'-Pivaloyloxymethyl griseolate [Example 1]
- Intraocular pressure reduction relative to 0.5% timolol [1, 7]: 2.38

Compound: 9'-[1-(Isopropoxycarbonyloxy)ethyl] griseolate [Example 2]
- Intraocular pressure reduction relative to 0.5% timolol [1, 7]: 1.24

Compound: Cc1oc(=O)oc1COC(=O)C12C=C(C(O)C(=O)O)OC1C(O)C(n1cnc3c(N)ncnc31)O2 (centres unmarked) [Example 3, 9'-(5-Methyl-2-oxo-1,3-dioxolen-4-yl)methyl griseolate]
- Intraocular pressure reduction relative to 0.5% timolol [1, 7]: 0.90

Compound: CCCC(=O)OC(C)OC(=O)C12C=C(C(O)C(=O)O)OC1C(O)C(n1cnc3c(N)ncnc31)O2 (centres unmarked) [Example 7, 9'-(1-Butyryloxyethyl) griseolate]
- Intraocular pressure reduction relative to 0.5% timolol [1, 7]: 0.79

- cAMP accumulating effect [2]: 8.5
Compound: CC(C)(C)C(=O)Oc1ccc(COC(=O)C23C=C(C(O)C(=O)O)OC2C(O)C(n2cnc4c(N)ncnc42)O3)cc1 (centres unmarked) [Example 21(b), 9'-(4-Pivaloyloxybenzyl) griseolate]

Compound: CC(C)C(=O)Oc1ccc(COC(=O)C2=CC3(C(O)C(=O)O)OC(n4cnc5c(N)ncnc54)C(O)C3O2)cc1 (centres unmarked) [Example 23(b), 9'-(4-lsobutyryloxybenzyl) griseolate]
- IOP Lowering Effect (Ratio to 0.5% timolol) ([4]; Concentration 0.03 %): 1.62

Compound: CC(=O)Oc1ccccc1C=CCOC(=O)C12C=C(C(O)C(=O)O)OC1C(O)C(n1cnc3c(N)ncnc31)O2 (centres unmarked) [Example 31(b), 9'-(2-Acetoxycinnamyl) griseolate]
- IOP Lowering Effect (Ratio to 0.5% timolol) ([4]; Concentration 0.5 %): 1.88

Compound: CC(=O)Oc1ccc(COC(=O)C(O)C2=CC3(C(=O)O)OC(n4cnc5c(N)ncnc54)C(O)C3O2)cc1 (centres unmarked) [Example 34, 8'-(4-Acetoxybenzyl) griseolate]
- cAMP accumulating effect [2]: 16

Compound: COc1cc(COC(=O)C(O)C2=CC3(C(=O)O)OC(n4cnc5c(N)ncnc54)C(O)C3O2)ccc1OC(C)=O (centres unmarked) [Example 35, 8'-(4-Acetoxy-3-methoxybenzyl) griseolate]
- cAMP accumulating effect [2]: 18

Compound: CC(=O)Oc1ccc(COC(=O)C23C=C(CC(=O)O)OC2C(O)C(n2cnc4c(N)ncnc42)O3)cc1 (centres unmarked) [Example 36, 9'-(4-Acetoxybenzyl) 7'-deoxygriseolate]
- cAMP accumulating effect [2]: 16

Compound: Nc1ncnc2c1ncn2[C@@H]1OC2=C[C@@](C(=O)O)(C(O)C(=O)O)O[C@H]2[C@H]1O (some centres unmarked) [Griseolic acid]
- Intraocular pressure reduction relative to 0.5% timolol [1, 7]: -0.12
- fold induction at 500 µM ([3]; Mus musculus, BALB/3T3, 10 min, read-out: cAMP accumulating effect): 3.5

Compound: CC(C)(C)NC[C@H](O)COc1nsnc1N1CCOCC1 [timolol maleate, reference compound]
- difference of IOP between the control eye and the test eye [5]: no significant difference
- significant lowering of IOP [6]: only observed 2 hours after application

Compound: CC(C)(C)NC[C@H](O)COc1nsnc1N1CCOCC1 [timolol, reference compound]
- Intraocular pressure reduction relative to 0.5% timolol ([1]; drug concentration 0.5 %, 30 µℓ instilled at 0 and 60 min, reference, taken as 1): 1.0
